Earlier results, collected in patent US20100172981A1, “Ibuprofen-Effervescent Preparation Having a High Dissolution Rate and Method for the Production thereof” (Losan Pharma GMBH, priority 2006, published 2010).

Conditions: general statement in the background section

SMILES: CC(C)Cc1ccc(C(C)C(=O)O)cc1.[Na] (stereo not shown) [ibuprofen-sodium]
- solubility / dissolution in water (words, background): dissolves only slowly in water
